Test results taken from the CheMixHub viscosity set.

Assay: xn = mol fraction of the nth substance listed

C=COCCCC + CCOC(=O)c1ccccc1
viscosity [mPa·s], 101 kPa
Settings | x2 = 0.0939 | x2 = 0.1857 | x2 = 0.2804 | x2 = 0.3768 | x2 = 0.4748 | x2 = 0.557 | x2 = 0.6781 | x2 = 0.7812 | x2 = 0.8898
303.15 K | 0.438 | 0.499 | 0.573 | 0.663 | 0.769 | 0.877 | 1.061 | 1.25 | 1.482
308.15 K | 0.425 | 0.482 | 0.55 | 0.633 | 0.729 | 0.827 | 0.995 | 1.163 | 1.372
313.15 K | 0.404 | 0.458 | 0.519 | 0.592 | 0.678 | 0.762 | 0.907 | 1.054 | 1.231

CCI + CCOC(C)=O
Settings | viscosity [mPa·s]
298.15 K, 101 kPa, x2 = 0.7859 | 0.462

O=[N+]([O-])c1ccccc1 + CCOC(C)=O
viscosity [mPa·s], 101 kPa
Settings | 298.15 K | 308.15 K
x1 = 0.1753 | 0.582 | –
x1 = 0.4777 | 0.889 | –
x1 = 0.6887 | 1.204 | –
x2 = 0.0466 | 1.71 | 1.482
x2 = 0.1486 | 1.535 | 1.346
x2 = 0.2512 | 1.364 | 1.208
x2 = 0.3117 | 1.204 | –
x2 = 0.3496 | 1.206 | 1.077
x2 = 0.4483 | 1.057 | 0.95
x2 = 0.4935 | 0.992 | 0.893
x2 = 0.5223 | 0.889 | –
x2 = 0.5538 | 0.909 | 0.821
x2 = 0.6497 | 0.785 | 0.711
x2 = 0.7513 | 0.666 | 0.604
x2 = 0.8247 | 0.582 | –
x2 = 0.8488 | 0.564 | 0.512
x2 = 0.9411 | 0.478 | 0.433

ClC(Cl)=C(Cl)Cl + CCOCCO
viscosity [mPa·s], 101.33 kPa
Settings | x1 = 0.1174 | x1 = 0.2104 | x1 = 0.323 | x1 = 0.4392 | x1 = 0.5276 | x1 = 0.6168 | x1 = 0.7085 | x1 = 0.8053 | x1 = 0.9054
303.15 K | 1.513 | 1.396 | 1.272 | 1.149 | 1.065 | 0.992 | 0.926 | 0.869 | 0.822
313.15 K | 1.201 | 1.132 | 1.049 | 0.968 | 0.91 | 0.857 | 0.809 | 0.769 | 0.739

CCCCCO + CN(C)C=O
298.15 K, 101 kPa
Settings | viscosity [mPa·s]
x2 = 0.4261 | 1.395
x2 = 0.5467 | 1.568

O=[N+]([O-])c1ccccc1 + CN(C)C=O
viscosity [mPa·s]
Settings | 298.15 K | 303.15 K | 308.15 K | 313.15 K
101.3 kPa, x1 = 0.0953 | 0.926 | 0.8671 | 0.8133 | 0.7628
101.3 kPa, x1 = 0.1999 | 1.026 | 0.9585 | 0.8949 | 0.8362
101.3 kPa, x1 = 0.3027 | 1.129 | 1.053 | 0.9803 | 0.9134
101.3 kPa, x1 = 0.4044 | 1.231 | 1.146 | 1.075 | 0.9878
101.3 kPa, x1 = 0.504 | 1.338 | 1.246 | 1.154 | 1.07
101.3 kPa, x1 = 0.6035 | 1.441 | 1.332 | 1.232 | 1.14
101.3 kPa, x1 = 0.7034 | 1.543 | 1.423 | 1.313 | 1.214
101.3 kPa, x1 = 0.8011 | 1.638 | 1.505 | 1.389 | 1.28
101.3 kPa, x1 = 0.8937 | 1.74 | 1.595 | 1.469 | 1.351
101.33 kPa, x2 = 0.1017 | – | 1.524 | – | 1.307
101.33 kPa, x2 = 0.2145 | – | 1.416 | – | 1.22
101.33 kPa, x2 = 0.3053 | – | 1.331 | – | –
101.33 kPa, x2 = 0.3083 | – | – | – | 1.157
101.33 kPa, x2 = 0.404 | – | 1.246 | – | 1.091
101.33 kPa, x2 = 0.5021 | – | 1.165 | – | 1.023
101.33 kPa, x2 = 0.6003 | – | 1.085 | – | 0.952
101.33 kPa, x2 = 0.6968 | – | 1.002 | – | 0.884
101.33 kPa, x2 = 0.7975 | – | 0.917 | – | 0.809
101.33 kPa, x2 = 0.8975 | – | 0.826 | – | 0.738

c1ccccc1 + CN(C)C=O
298.15 K
Settings | viscosity [mPa·s]
101 kPa, x1 = 0.0257 | 0.799
101 kPa, x1 = 0.0509 | 0.795
101 kPa, x1 = 0.1031 | 0.783
101 kPa, x1 = 0.1578 | 0.765
101 kPa, x1 = 0.2083 | 0.759
101 kPa, x1 = 0.2579 | 0.75
101 kPa, x1 = 0.3129 | 0.7455
101 kPa, x1 = 0.3651 | 0.739
101 kPa, x1 = 0.4202 | 0.725
101 kPa, x1 = 0.469 | 0.711
101 kPa, x1 = 0.5167 | 0.7175
101 kPa, x1 = 0.5779 | 0.7
101 kPa, x1 = 0.6247 | 0.697
101 kPa, x1 = 0.6758 | 0.6825
101 kPa, x1 = 0.7167 | 0.671
101 kPa, x1 = 0.7855 | 0.653
101 kPa, x1 = 0.8262 | 0.643
101 kPa, x1 = 0.8944 | 0.6255
101 kPa, x1 = 0.9372 | 0.615
101 kPa, x1 = 0.9409 | 0.614
101 kPa, x1 = 0.9761 | 0.605
101.33 kPa, x1 = 0.1225 | 0.7645
101.33 kPa, x1 = 0.2494 | 0.7375
101.33 kPa, x1 = 0.4823 | 0.6925
101.33 kPa, x1 = 0.6236 | 0.6672
101.33 kPa, x1 = 0.7499 | 0.6477
101.33 kPa, x1 = 0.8733 | 0.6245

ClC(Cl)=C(Cl)Cl + CO
viscosity [mPa·s], 101.33 kPa
Settings | x2 = 0.1436 | x2 = 0.2974 | x2 = 0.456 | x2 = 0.6044 | x2 = 0.7514 | x2 = 0.9006
293.15 K | 0.762 | 0.721 | 0.683 | 0.639 | 0.585 | 0.535
303.15 K | 0.705 | 0.667 | 0.63 | 0.59 | 0.552 | 0.512
313.15 K | 0.6515 | 0.622 | 0.592 | 0.561 | 0.529 | 0.497
